Measured values: PubChem BioAssay AID248 (DTP/NCI, 2004)
Values joined by “and” are separate entries in the source; they are usually repeats but may differ in a detail not shown here. Equal entries are not always repeated. Toxic doses and inconclusive results are not listed. Rule as the data show it: active = T/C of 150% or more; inactive = T/C below 125%.

System: L1210 leukemia ip in BDF1 mice, survival T/C
Experiment: NCI In Vivo Anticancer Drug Screen. Data for tumor model L1210 Leukemia (intraperitoneal) in B6D2F1 (BDF1) mice
Details: endpoint: mean survival time, higher = longer survival
In short: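 Transplanted-tumor mice were given test agent; controls received vehicle only. Survival readings from the two groups were divided (treated over control).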

[1] = dose: 100.0 mg/kg/injection, schedule: Q01DX009 (ip), vehicle: Klucel (hydroxypropylcellulose) (HPC)
[2] = dose: 100.0 mg/kg/injection, schedule: Q04DX003 (ip), vehicle: Klucel (hydroxypropylcellulose) (HPC)
[3] = dose: 200.0 mg/kg/injection, schedule: Q01DX009 (ip), vehicle: Klucel (hydroxypropylcellulose) (HPC)
[4] = dose: 200.0 mg/kg/injection, schedule: Q04DX003 (ip), vehicle: Klucel (hydroxypropylcellulose) (HPC)
[5] = dose: 50.0 mg/kg/injection, schedule: Q01DX009 (ip), vehicle: Klucel (hydroxypropylcellulose) (HPC)
[6] = dose: 100.0 mg/kg/injection, schedule: Q01DX009 (ip), vehicle: saline with Tween-80
[7] = dose: 200.0 mg/kg/injection, schedule: Q01DX009 (ip), vehicle: saline with Tween-80
[8] = dose: 100.0 mg/kg/injection, schedule: Q04DX002 (ip), vehicle: Klucel (hydroxypropylcellulose) (HPC)
[9] = dose: 200.0 mg/kg/injection, schedule: Q04DX002 (ip), vehicle: Klucel (hydroxypropylcellulose) (HPC)
[10] = dose: 400.0 mg/kg/injection, schedule: Q04DX002 (ip), vehicle: Klucel (hydroxypropylcellulose) (HPC)
[11] = dose: 50.0 mg/kg/injection, schedule: Q01DX009 (ip), vehicle: acetone
[12] = dose: 100.0 mg/kg/injection, schedule: Q01DX009 (ip), vehicle: acetone

Measured: T/C

BrC1CCCCCC(Br)C12OCCO2 (stereo not given)
inactive: [1] 95 % of control | [2] 102 % of control | [3] 98 % of control | [4] 104 % of control | dose: 400.0 mg/kg/injection, schedule: Q01DX009 (ip), vehicle: Klucel (hydroxypropylcellulose) (HPC) 101 % of control | dose: 400.0 mg/kg/injection, schedule: Q04DX003 (ip), vehicle: Klucel (hydroxypropylcellulose) (HPC) 100 % of control

CC1=CC(=O)OC2(C1)CC1CCC2CN1C (stereo not given)
inactive: dose: 50.0 mg/kg/injection, schedule: Q01DX001 (ip), vehicle: saline 95 % of control | dose: 100.0 mg/kg/injection, schedule: Q01DX001 (ip), vehicle: saline 101 % of control

Cc1cc(C)c2cc(C=O)cc-2c(C)c1
inactive: dose: 100.0 mg/kg/injection, schedule: Q04DX003 (ip), vehicle: saline with Tween-80 103 % of control | dose: 200.0 mg/kg/injection, schedule: Q04DX003 (ip), vehicle: saline with Tween-80 94 % of control | dose: 400.0 mg/kg/injection, schedule: Q04DX003 (ip), vehicle: saline with Tween-80 93 % of control

CC1OC(C2COC(C)(C)O2)C2OCOC12 (stereo not given)
inactive: dose: 100.0 mg/kg/injection, schedule: Q04DX002 (ip), vehicle: saline with Tween-80 100 % of control | dose: 200.0 mg/kg/injection, schedule: Q04DX002 (ip), vehicle: saline with Tween-80 100 % of control | dose: 400.0 mg/kg/injection, schedule: Q04DX002 (ip), vehicle: saline with Tween-80 100 % of control

O=[N+]([O-])NC(=NCCNc1ccccc1)Nc1ccccc1
inactive: dose: 100.0 mg/kg/injection, schedule: Q04DX002 (ip), vehicle: gum acacia 98 % of control | dose: 200.0 mg/kg/injection, schedule: Q04DX002 (ip), vehicle: gum acacia 98 % of control | dose: 400.0 mg/kg/injection, schedule: Q04DX002 (ip), vehicle: gum acacia 88 % of control

COc1cc2c(cc1OC)C1CCN3C(=O)CCC3N1CC2 (stereo not given)
inactive: [5] 101 % of control | [1] 101 % of control | [6] 95 % of control | [3] 104 % of control | [7] 98 % of control | dose: 400.0 mg/kg/injection, schedule: Q01DX009 (ip), vehicle: saline with Tween-80 98 % of control

CN=C(NC)c1ccc(NC(=O)Nc2ccc(C)c(NC(=O)Nc3ccc(C(=NC)NC)cc3)c2)cc1
inactive: dose: 4.5 mg/kg/injection, schedule: Q01DX Z (ip), vehicle: water 98 % of control | dose: 9.0 mg/kg/injection, schedule: Q01DX Z (ip), vehicle: water 98 % of control | dose: 18.0 mg/kg/injection, schedule: Q01DX Z (ip), vehicle: water 98 % of control

CNc1ncnc(NC)c1[N+](=O)[O-]
inactive: [8] 101 % of control | [9] 90 % of control

O=C1N(c2cccnc2)C(c2ccccc2)C1(c1ccccc1)c1ccccc1 (stereo not given)
inactive: dose: 100.0 mg/kg/injection, schedule: Q04DX003 (ip), vehicle: gum acacia 91 % of control | dose: 200.0 mg/kg/injection, schedule: Q04DX003 (ip), vehicle: gum acacia 87 % of control | dose: 400.0 mg/kg/injection, schedule: Q04DX003 (ip), vehicle: gum acacia 91 % of control

O=[N+]([O-])c1ccc(/C=C/c2ccc(OCc3ccccc3)cc2)cc1Cl
inactive: [8] 96 % of control | [9] 96 % of control | [10] 96 % of control

CCOC(=O)C1(C(=O)OCC)C2CC(C)=C(C)CC21 (stereo not given)
inactive: [11] 92 % of control | [12] 90 % of control

Cc1ccc(S(=O)(=O)N(CCCc2c(C)[nH]c(=S)[nH]c2=O)c2ccccc2)cc1
inactive: dose: 50.0 mg/kg/injection, schedule: Q04DX002 (ip), vehicle: Klucel (hydroxypropylcellulose) (HPC) 91 % of control | [8] 100 % of control and 91 % of control | [9] 100 % of control and 91 % of control | [10] 100 % of control

O=S(=O)(Nc1ccccc1)c1ccc2c(Cl)cc(S(=O)(=O)Nc3ccccc3)cc2c1
inactive: dose: 100.0 mg/kg/injection, schedule: Q01DX001 (ip), vehicle: saline with Tween-80 93 % of control | dose: 200.0 mg/kg/injection, schedule: Q01DX001 (ip), vehicle: saline with Tween-80 93 % of control | dose: 400.0 mg/kg/injection, schedule: Q01DX001 (ip), vehicle: saline with Tween-80 91 % of control

O=S(=O)(CC(Cl)c1ccccc1)c1ccccc1 (stereo not given)
inactive: dose: 100.0 mg/kg/injection, schedule: Q01DX001 (ip), vehicle: acetone 95 % of control | dose: 100.0 mg/kg/injection, schedule: Q01DX009 (ip), vehicle: saline 91 % of control | dose: 200.0 mg/kg/injection, schedule: Q01DX001 (ip), vehicle: acetone 98 % of control | dose: 200.0 mg/kg/injection, schedule: Q01DX009 (ip), vehicle: saline 94 % of control | dose: 400.0 mg/kg/injection, schedule: Q01DX001 (ip), vehicle: acetone 92 % of control | dose: 400.0 mg/kg/injection, schedule: Q01DX009 (ip), vehicle: saline 89 % of control

CC(C)CC(NC(=O)c1ccccc1)C(N)=O (stereo not given)
inactive: [6] 90 % of control | [7] 90 % of control

CCC1CCCCN1C (stereo not given)
inactive: dose: 25.0 mg/kg/injection, schedule: Q01DX009 (ip), vehicle: acetone 96 % of control | [11] 94 % of control | [12] 100 % of control

CCCCCCCCCCOB(OCCCCCCCCCC)OCCCCCCCCCC
inactive: dose: 25.0 mg/kg/injection, schedule: Q01DX009 (ip), vehicle: saline with Tween-80 93 % of control | dose: 50.0 mg/kg/injection, schedule: Q01DX009 (ip), vehicle: saline with Tween-80 96 % of control | [6] 96 % of control

CC(C)(c1ccccc1)[N+](C)(C)C
inactive: dose: 4.0 mg/kg/injection, schedule: Q01DX Z (ip), vehicle: saline 93 % of control | dose: 6.25 mg/kg/injection, schedule: Q01DX009 (ip), vehicle: saline 97 % of control | dose: 6.25 mg/kg/injection, schedule: Q04DX003 (ip), vehicle: saline 104 % of control | dose: 8.0 mg/kg/injection, schedule: Q01DX Z (ip), vehicle: saline 96 % of control | dose: 12.5 mg/kg/injection, schedule: Q01DX009 (ip), vehicle: saline 91 % of control | dose: 12.5 mg/kg/injection, schedule: Q04DX003 (ip), vehicle: saline 103 % of control | dose: 16.0 mg/kg/injection, schedule: Q01DX Z (ip), vehicle: saline 92 % of control | dose: 25.0 mg/kg/injection, schedule: Q01DX009 (ip), vehicle: saline 92 % of control | dose: 25.0 mg/kg/injection, schedule: Q04DX003 (ip), vehicle: saline 91 % of control

CSc1nccc(=O)[nH]1
inactive: [5] 100 % of control | [1] 95 % of control | [2] 102 % of control | [4] 96 % of control

COc1ccc(C2CCc3cc(OC)c(OC)cc3C2NC=O)cc1OC (stereo not given)
inactive: dose: 40.0 mg/kg/injection, schedule: Q01DX009 (ip), vehicle: saline with Tween-80 90 % of control | dose: 80.0 mg/kg/injection, schedule: Q01DX009 (ip), vehicle: saline with Tween-80 102 % of control | dose: 120.0 mg/kg/injection, schedule: Q01DX009 (ip), vehicle: saline with Tween-80 93 % of control | dose: 240.0 mg/kg/injection, schedule: Q01DX009 (ip), vehicle: saline with Tween-80 90 % of control | dose: 360.0 mg/kg/injection, schedule: Q01DX009 (ip), vehicle: saline with Tween-80 87 % of control
